Test results as given in patent US20240252496A1, “SELECTIVE HYPOTHALAMUS PERMEABLE HDAC6 INHIBITORS FORTREATMENT OF LEPTIN-RESISTANT OBESITY” (The Children’s Medical Center Corporation, priority 2022, published 2024).

Columns and labels:
HDAC6 in AgRP neurons = assay: DIO mice with HDAC6 deleted in AgRP neurons (HDAC6^Agrp-Δ); assay type: in vivo
Experimental: Design, validation, and stereotaxic injection of AAV viral vector carrying the guide RNAs targeting the mouse HDAC6 genomic locus. Three designed sgRNAs were concatenated and constructed into an AAV vector carrying a cre-enabled mCherry fluorescent marker.
Following the bilateral injection of AAV-sgHDAC6 into the arcuate nucleus of Agrp-ires-cre::LSL-Cas9-GFP (Agrp-Cre^+/−::Cas9^+/−) or control LSL-Cas9-GFP (Cas9^+/−) mice, immunostaining to detect the expression of mCherry and GFP was performed. AAV-sg-HDAC6 injected Agrp-Cre^+/−::Cas9^+/− (HDAC6^Agrp-Δ) and Cas9^+/− (HDAC6^WT) DIO mice (n=7 for each group) were fasted for 24 hours, and injected with ACY775 (10 mg/kg. i.p). Hourly total dark cycle food intake (g) (n=7 for each group) of these mice after ACY775 injection was measured. Body weight of AAV-sg-HDAC6 injected HDAC6^Agrp-Δ (n=11) and HDAC6^WT (n=6) mice were measured during 3 weeks of ACY775 (10 mg/kg/day, i.p.) treatment. Daily average food intake of HDAC6^Agro-Δ (n=11) and HDAC6^WT (n=6) mice was measured during 3 weeks of ACY775 (10 mg/kg/day, i.p.) treatment. 24-hour food intake average of HDAC Agrp- and HDAC6^WT mice during the 3 weeks of ACY775 treatment was assessed. Serum leptin level (ng/ml) of HDAC6^Agrp-Δ and HDAC6^WT mice after 2 weeks of ACY775 treatment (n=13 for HDAC6^WT and n=18 for HDAC6^Agrp-Δ) was measured. Lean mass (g); fat mass; and fat percentage (%) of HDAC Agrp- and HDAC6^WT DIO mice after 3 weeks of ACY775 treatment was measured by DEXA scan. The HDAC6 inhibitor responsive neurons in the dorsomedial hypothalamus (DMH) were assessed. Immunostaining and quantification of c-Fos expression was performed in the DMH of DIO mice following one-time ACY775 treatment (10 mg/kg, i.p.).

DIO mice = assay: Metabolic cages (CLAMS) in DIO mice; assay type: in vivo; conditions: for energy expenditure: 3 days, ACY775 10, ACY738 50 mg/kg i.p.
Experimental: Diet induced obese (DIO) mice were placed into metabolic cages and received ACY775 (10 mg/kg, i.p., n=7) or vehicle (n=8) once a day for 3 days. Energy expenditure, respiratory exchange ratios (RER; VCO2/VO2), ambulatory count (physical activity) from each group of mice were determined. Bar graphs represent average of two dark (8-20 and 32-44 hr) and two light cycles ([…]).
Comprehensive Lab Animal Monitoring System (CLAMS) was used to measure metabolic parameters such as energy expenditure (EE) and respiratory exchange ratio (RER) and physical activity levels in Vehicle- and ACY775-treated mice.

LepRb-HDAC6 interaction = LepRb-HDAC6 interaction (Mus musculus (Mouse), UniProt Q9Z2V5); assay: LepRb-flag / HDAC6-myc co-immunoprecipitation in HEK293 cells; assay type: cell-based; conditions: 200 nM for 1 h
Sequence of LepRb-HDAC6 interaction (Q9Z2V5 whole entry): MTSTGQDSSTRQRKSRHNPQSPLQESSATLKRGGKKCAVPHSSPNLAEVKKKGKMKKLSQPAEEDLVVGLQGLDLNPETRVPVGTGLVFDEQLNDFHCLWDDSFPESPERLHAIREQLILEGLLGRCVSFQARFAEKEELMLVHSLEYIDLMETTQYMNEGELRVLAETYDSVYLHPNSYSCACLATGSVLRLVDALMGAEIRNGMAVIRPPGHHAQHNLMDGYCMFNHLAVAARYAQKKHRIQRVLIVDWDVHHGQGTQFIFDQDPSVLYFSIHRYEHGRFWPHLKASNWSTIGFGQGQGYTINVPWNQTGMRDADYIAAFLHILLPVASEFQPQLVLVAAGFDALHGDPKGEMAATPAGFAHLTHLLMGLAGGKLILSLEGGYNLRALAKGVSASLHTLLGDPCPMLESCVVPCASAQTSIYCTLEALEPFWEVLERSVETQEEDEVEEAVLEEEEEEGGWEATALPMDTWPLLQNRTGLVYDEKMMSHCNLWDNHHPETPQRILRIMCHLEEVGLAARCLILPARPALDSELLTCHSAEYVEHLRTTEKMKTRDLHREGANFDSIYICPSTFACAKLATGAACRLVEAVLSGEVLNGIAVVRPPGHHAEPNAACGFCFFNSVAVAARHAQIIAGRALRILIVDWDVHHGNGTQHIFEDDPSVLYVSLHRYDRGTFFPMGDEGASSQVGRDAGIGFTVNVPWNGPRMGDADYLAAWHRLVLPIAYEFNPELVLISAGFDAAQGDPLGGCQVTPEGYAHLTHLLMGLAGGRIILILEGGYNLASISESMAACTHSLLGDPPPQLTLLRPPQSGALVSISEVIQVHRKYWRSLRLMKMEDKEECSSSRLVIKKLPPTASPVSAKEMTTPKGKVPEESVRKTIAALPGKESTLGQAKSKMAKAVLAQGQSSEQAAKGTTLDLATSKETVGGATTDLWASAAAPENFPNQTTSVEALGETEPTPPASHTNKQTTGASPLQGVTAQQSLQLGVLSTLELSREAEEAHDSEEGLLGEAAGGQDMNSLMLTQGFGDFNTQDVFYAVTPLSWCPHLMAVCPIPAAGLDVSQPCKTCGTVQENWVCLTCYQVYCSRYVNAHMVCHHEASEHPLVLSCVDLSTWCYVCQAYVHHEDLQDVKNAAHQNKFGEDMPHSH
Experimental: It was hypothesized that HDAC6 might interact with leptin receptor b (LepRb). To test this hypothesis, HEK293 cells were transfected with GFP or HDAC6-myc or LepRb-flag or LepRb-flag and HDAC6-myc expressing plasmids. Subsequently, cells were treated either with vehicle or HDAC6 inhibitor (ACY775) (200 nM for 1 h). Then Flag immunoprecipitation was performed to pull down LepRb and subsequently immunoblot these immune-precipitates with Myc and Flag antibodies.
HEK293 cells were transfected with GFP (as control) or HDAC6 or LepRb or LepRb and HDAC6 together. Subsequently cells were either treated with vehicle or HDAC6 inhibitor (ACY775) (200 nM for 1 h). Flag immunoprecipitation was used to pull down LepRb, followed by Myc and Flag immunoblotting.

[1] = Brain/plasma ratio, brain and hypothalamus penetrance; assay type: in vivo; conditions: in words
HDAC6 = HDAC6 (Mus musculus (Mouse), UniProt Q9Z2V5); assay: HDAC6 inhibition in hypothalamus and other brain regions (Ac-tubulin); parameters: species or system mice; conditions: in vivo
Sequence of HDAC6 (Q9Z2V5 whole entry): as above

SMILES	suppression of food intake after a single dose in HDAC6^Agrp-Δ DIO mice (HDAC6 in AgRP neurons; ACY775 10 mg/kg i.p., fasted)	anti-obesity effects in HDAC6^Agrp-Δ vs HDAC6^WT DIO mice (HDAC6 in AgRP neurons; chronic treatment)	energy expenditure (DIO mice)	respiratory exchange ratio (RER) (DIO mice; dark and light cycles)	HDAC6 interaction with LepRb (LepRb-HDAC6 interaction)	penetrance into the hypothalamus [1]	HDAC6 inhibition in the hypothalamus (HDAC6)
O=C(NO)c1cnc(NC2(c3cccc(F)c3)CCCCC2)nc1 [ACY775, 2-[[1-(3-fluorophenyl)cyclohexyl]amino]-N-hydroxy-5-pyrimidinecarboxamide]	almost complete resistance to ACY755-induced suppression of food intake	Significantly attenuated effects of ACY775 on all the parameters	higher in the both dark and light cycle	significantly decreased	blocks this interaction	–	–
O=C(CCCCCCNC(=O)c1cnc(N(c2ccccc2)c2ccccc2)nc1)NO [Ricolinostat]	–	–	–	–	–	neither of which have high penetrance into the hypothalamus	nor show HDAC6 inhibition in the hypothalamus
O=C(NO)c1cnc(NC2(c3ccccc3)CC2)nc1 [ACY738]	–	–	higher energy expenditure in light cycle, though without significant difference in dark cycle	–	–	–	–
